{"source": "patent US7015209B2", "about": "“Hair-growing agent” (Kyowa Hakko Kogyo Co., Ltd., priority 1999, dated 2006)", "key": {"[1]": {"test_system": "mouse hair follicle epithelial cells", "experiment": "Cell growth-promoting effect on cultured mouse hair follicle epithelial cells (MTT)", "assay_type": "cell-based", "method": "Hair follicle epithelial cells were separated and cultured according to a modification of the method of Tanigaki, et al. [Archives of Dermatological Research, 284, 290–296 (1992)].\nThe skin on the back of a 4-days-old C3H mouse (Charles River Japan, Inc.) was cut off and treated with MEM (Eagle's Minimum Essential Medium) containing 500 units/ml Dispase (Godo Shusei Co., Ltd.) and 5% fetal calf serum (FCS) at 4° C. for 16 hours.\nThen, the epidermis was stripped from the skin section, and the obtained dermis layer was treated with DMEM (Dulbecco's modified Eagle Medium) containing 0.25% Collagenase N-2 (Nitta Gelatin Co., Ltd.) and 10% FCS at 37° C. for one hour to obtain a dermis suspension. The dermis suspension was filtered through a 212-μm nylon mesh (Nippon Rikagaku Kikai Co., Ltd.) and the filtrate was centrifuged at 1000 rpm for 5 minutes to obtain pellets containing hair follicle tissue. To the pellets was added calcium/magnesium-free PBS (Dulbecco's Phosphate-Buffered Saline) and the pellets were suspended therein using a pipette. The resulting suspension was allowed to stand for 15 minutes to precipitate hair tissue. The same procedure as above (addition of calcium/magnesium-free PBS, suspending by use of a pipette, and precipitation by allowing suspension to stand for 15 minutes) was repeated three times using the obtained hair tissue.\nThen, the hair tissue was treated with a solution containing 0.1% ethylenediaminetetraacetic acid (EDTA) and 0.25% trypsin (Gibco) at 37° C. for 5 minutes. To the resulting mixture was added DMEM containing 10% FCS to prepare a hair tissue cell suspension having a density of 3×10^5 cells/ml. The hair tissue cell suspension was put into wells of a 24-well collagen-coated plate (Iwaki Glass Co., Ltd.) in an amount of 1 ml/well, followed by culturing in 5% CO2 at 37° C. for 24 hours.\nAfter the culturing, the medium was replaced by a medium prepared by adding to MCDB153 medium (Kyokuto Pharmaceutical Ind. Co., Ltd.) DMSO containing 5 mg/l bovine insulin (Sigma Chemical Co., Ltd.); 5 μg/l mouse epidermal growth factor (EGF) (Takara Shuzo Co., Ltd.); 40 mg/l bovine pituitary extract (Kyokuto Pharmaceutical Ind. Co., Ltd.); 10 mg/l human transferrin (Sigma Chemical Co., Ltd.); 0.4 mg/l hydrocortisone (Sigma Chemical Co., Ltd.); 0.63 μg/l progesterone (Collaborative Research Co.); 14 mg/l O-phosphoethanolamine (Sigma Chemical Co., Ltd.); 6.1 mg/l ethanolamine (Sigma Chemical Co., Ltd.); 50 U/ml penicillin (Wako Pure Chemical Industries, Ltd.); 50 μg/ml streptomycin (Wako Pure Chemical Industries, Ltd.); monooleoyl lysophosphatidic acid, dioleoyl phosphatidic acid (Sigma Chemical Co., Ltd.), didecanoyl phosphatidic acid (Sigma Chemical Co., Ltd.), dimyristoyl phosphatidic acid (Funakoshi Co., Ltd.), dipalmitoyl phosphatidic acid (Wako Pure Chemical Industries, Ltd.), dilauroyl phosphatidic acid (Funakoshi Co., Ltd.) or egg yolk-derived phosphatidic acid (Sigma Chemical Co., Ltd.); and/or proanthocyanidin, a protein kinase C-specific inhibitor or tocopherol (added in an amount of 1/100 by volume), followed by further culturing in 5% CO2 at 37° C. for 5 days. During the culturing, the medium was replaced with a fresh one every other day.\nAs a control, the cells were cultured in the same medium as above except that DMSO alone was added in an amount of 1/100 by volume in place of DMSO containing lysophosphatidic acid or phosphatidic acid, and/or proanthocyanidin, a protein kinase C-specific inhibitor or tocopherol.\nThe degree of cell growth was measured according to the method using MTT [3-(4,5-dimethylthiazol-2-yl)-2,5-diphenyl tetrazolium bromide] [Experimental Medicine (extra number), Bio Manual UP Series, Experimental Method of Cell Culture for Molecular Biological Studies, p. 89–92, Yodosha (1995)].\nTo each well of the 24-well microplate (2 cm^2/well) was added a PBS solution of MTT (5 mg/ml) in an amount of 1/10 by volume based on 1 ml of the culture. […]"}, "protein kinase C (PKC)": {"test_system": "protein kinase C (PKC)", "experiment": "Measurement of PKC-inhibiting activity (PKC-IC50)", "settings": "for IC50: read-out: PKC-IC50, crude enzyme partially purified from rat brain", "method": "(1) Method for Measuring PKC-Inhibiting Activity\nMeasurement of PKC-inhibiting activity can be carried out in a manner similar to the method of Kikkawa, et al. [Journal of Biological Chemistry, 257, 13341 (1982)].\nTo 250 μl of an aqueous solution comprising 2.5 μmol of magnesium acetate, 50 μg of histone Type IIIS (Sigma Chemical Co., Ltd.), 20 μg of phosphatidylserine, 0.8 μg. of diolein, 25 nmol of calcium chloride, 5 μg of a crude enzyme (partially purified from rat brain by the method of Kikkawa, et al.) and 5 μmol of Tris-HCl buffer (pH 7.5) is added the above aqueous solution containing a test compound (10 μl), followed by incubation at 30° C. for 3 minutes. After the incubation, 1.25 nmol of [γ-^32P]ATP (5–10×10^3 cpm/nmol) is added thereto, followed by phosphorylation reaction at 30° C. for 3 minutes. The reaction is terminated by addition of 25% trichloroacetic acid and the reaction mixture is filtered through a cellulose acetate membrane (pore size: 0.45 μm, Toyo Filter Co., Ltd.) After the membrane is washed four times with 5% trichloroacetic acid, the radioactivity remaining on the membrane is measured as a test compound value. Separately, the above procedure is carried out in the same manner without addition of the test compound and the radioactivity is measured as a control value.\nThe molar concentration of the test compound giving a test compound value which is 50% of the control value is regarded as the 50% PKC inhibition constant (PKC-IC50)."}, "protein kinase A (PKA)": {"target": "protein kinase A (PKA) (Bos taurus, UniProt P00517)", "experiment": "Measurement of PKA-inhibiting activity (PKA-IC50)", "assay_type": "biochemical", "settings": "crude enzyme partially purified from calf heart", "description": "(2) Method for Measuring PKA-Inhibiting Activity"}, "[2]": {"settings": "Table 2 (2), 10 μmol/l alone, 5 days culture"}, "[3]": {"settings": "Table 2 (1), 3 μmol/l alone, 5 days culture"}, "[4]": {"settings": "Table 2 (1), 30 μmol/l alone, 5 days culture"}}, "note": "Read-outs that look alike come from different tables or passages of the source."}
{"compound": "CCCCCCCCCCCCCC(=O)OCC(COP(=O)(O)O)OC(=O)CCCCCCCCCCCCC", "note": "(stereo not drawn) [Dimyristoyl phosphatidic acid, dimyristoyl phosphatidic acid]", "values": [{"measurement": "Relative cell growth rate based on the control as 100", "setting": "[1]; [2]", "result": 361}]}
{"compound": "Polymyxin B", "values": [{"measurement": "PKA-IC50/PKC-IC50", "setting": "protein kinase C (PKC)", "result": "> 384"}, {"measurement": "IC50", "setting": "protein kinase C (PKC)", "result": 2.6, "unit": "µM"}, {"measurement": "IC50", "setting": "protein kinase A (PKA)", "result": "> 1000", "unit": "µM"}]}
{"compound": "CCCCCCCCCCCCCCCC(=O)OC(CC(=O)[O-])C[N+](C)(C)C", "note": "(racemic) [Palmitoyl-DL-carnitine]", "values": [{"measurement": "PKA-IC50/PKC-IC50", "setting": "protein kinase C (PKC)", "result": "> 4.3"}, {"measurement": "IC50", "setting": "protein kinase C (PKC)", "result": 230, "unit": "µM"}, {"measurement": "IC50", "setting": "protein kinase A (PKA)", "result": "> 1000", "unit": "µM"}]}
{"compound": "Calphostin C", "values": [{"measurement": "Relative cell growth rate based on the control as 100", "setting": "[1]; [3]", "result": 180}, {"measurement": "Relative cell growth rate based on the control as 100", "setting": "[1]; Table 2 (2), 0.01 μmol/l alone", "result": 172}, {"measurement": "PKA-IC50/PKC-IC50", "setting": "protein kinase C (PKC); ratio of PKA-IC50 to PKC-IC50", "result": ">1000 ∥mol/l"}, {"measurement": "IC50", "setting": "protein kinase C (PKC)", "result": 0.05, "unit": "µM"}, {"measurement": "IC50", "setting": "protein kinase A (PKA)", "result": "> 50", "unit": "µM"}]}
{"compound": "CCCCCCCCCCCCCCCC(=O)OC[C@H](COP(=O)(O)O)OC(=O)CCCCCCCCCCCCCCC", "note": "[Dipalmitoyl phosphatidic acid, dipalmitoyl phosphatidic acid]", "values": [{"measurement": "Relative cell growth rate based on the control as 100", "setting": "[1]; Table 2 (2), 20 μmol/l alone", "result": 314}]}
{"compound": "Oc1cc(O)c2c(c1)O[C@H](c1ccc(O)c(O)c1)[C@H](O)[C@H]2c1c(O)cc(O)c2c1O[C@H](c1ccc(O)c(O)c1)[C@H](O)C2", "note": "[Procyanidin B-2, epicatechin-(4β→8)-epicatechin]", "values": [{"measurement": "Relative cell growth rate based on the control as 100", "setting": "[1]; [4]", "result": 260}, {"measurement": "Relative cell growth rate based on the control as 100", "setting": "[1]; [2]", "result": 251}]}
{"compound": "CCCCCCCCCC(=O)OCC(COP(=O)(O)O)OC(=O)CCCCCCCCC", "note": "(stereo not drawn) [Didecanoyl phosphatidic acid, didecanoyl phosphatidic acid]", "values": [{"measurement": "Relative cell growth rate based on the control as 100", "setting": "[1]; Table 2 (2), 1 μmol/l alone", "result": 168}]}
{"compound": "CCCCCCCC/C=C\\CCCCCCCC(=O)OC[C@@H](O)COP(=O)(O)O", "note": "[Monooleoyl lysophosphatidic acid, monooleoyl lysophosphatidic acid]", "values": [{"measurement": "Relative cell growth rate based on the control as 100", "setting": "[1]; [3]", "result": 200}]}
{"compound": "CCCCCCCCCCCC(=O)OC[C@H](COP(=O)(O)O)OC(=O)CCCCCCCCCCC", "note": "[Dilauroyl phosphatidic acid, dilauroyl phosphatidic acid]", "values": [{"measurement": "Relative cell growth rate based on the control as 100", "setting": "[1]; [2]", "result": 379}]}
{"compound": "CCCCCCCC/C=C\\CCCCCCCC(=O)OC[C@H](COP(=O)(O)O)OC(=O)CCCCCCC/C=C\\CCCCCCCC", "note": "[Dioleoyl phosphatidic acid, dioleoyl phosphatidic acid]", "values": [{"measurement": "Relative cell growth rate based on the control as 100", "setting": "[1]; [2]", "result": 255}]}
{"compound": "Cc1c(C)c2c(c(C)c1O)CCC(C)(CCCC(C)CCCC(C)CCCC(C)C)O2", "note": "(racemic) [dl-α-Tocopherol]", "values": [{"measurement": "Relative cell growth rate based on the control as 100", "setting": "[1]; [4]", "result": 150}, {"measurement": "Relative cell growth rate based on the control as 100", "setting": "[1]; Table 2 (2), 30 μmol/l alone", "result": 199}]}
